Results taken from patent US9493468B2, “Antifungal 5,6-dihydro-4H-pyrrolo[1,2-a][1,4]benzo-diazepines and 6H-pyrrolo[1,2-a][1,4]benzodiazepines substituted with heterocyclic derivatives” (Janssen Pharmaceutica NV, priority 2011, dated 2016).

How the values were obtained:
Type in all cases: cell-based
Microsporum canis = test: Antifungal activity in vitro, resazurin growth inhibition: Microsporum canis (B68128)
Method in brief: (§1)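 Compound dilutions, with 64 μM as the highest in-test level, are spotted onto plates, then an inoculum of 10^3 cfu in RPMI-1640 plus 2% glucose (MOPS, pH 7.0±0.1) is added. Plates are incubated at species-dependent time and temperature, up to a week or more at 27° C. for dermatophytes.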

[1] = system: Trichophyton mentagrophytes; test: Antifungal activity in vitro, resazurin growth inhibition: Trichophyton mentagrophytes (B70554)
Method in brief: as §1

Trichophyton rubrum = test: Antifungal activity in vitro, resazurin growth inhibition: Trichophyton rubrum (B68183)
Method in brief: as §1

Scedosporium apiospermum = test: Antifungal activity in vitro, resazurin growth inhibition: Scedosporium apiospermum (IHEM3817)
Protocol: (§2) The standard susceptibility screen is performed in 96-well plates (U-bottom, Greiner Bio-One). Serial dilutions (2-fold or 4-fold) of 20 mM compound stock solutions are made in 100% DMSO, followed by an intermediate dilution step in water. These serial dilutions (10 μl) are then spotted onto test-plates that can be stored in the dark at 4° C. for a maximum period of 2 weeks. An adequate broad dose-range is included with 64 μM as the highest in-test concentration. The culture medium RPMI-1640 is supplemented with L-glutamine, 2% glucose and buffered with 3-(N-morpholino)-propanesulfonic acid (MOPS) at pH 7.0±0.1.
(§3) The different fungal species/isolates (Table 3a) are cryopreserved and 1/1000 diluted in medium just prior to use. A standard inoculum of 200 μl containing 10^3 colony-forming unit (cfu) is then added to each well. A positive control (100% growth=fungal culture without antifungal) and a negative control (0% growth ═RPMI-MOPS medium) are included on each plate. Optimal incubation time and temperature are dependent on the fungal species and vary from 24 h for yeasts (37° C.) to one week or more for dermatophytes (27° C.). Inhibition of fungal growth is measured after adding 10 μl of 0.005% (w/v) resazurin (Sigma Aldrich) to each well, based on the principle that living cells convert the non-fluorescent blue resazurin into the pink and fluorescent resorufin, allowing fluorimetric reading (λex 550 nm and λem 590 nm) after an additional incubation period (‘resa’ time mentioned in Table 3a).

Scedosporium prolificans = test: Antifungal activity in vitro, resazurin growth inhibition: Scedosporium prolificans (IHEM21157)
Protocol: as §2, §3

Sporothrix schenkii = test: Antifungal activity in vitro, resazurin growth inhibition: Sporothrix schenkii (B62482)
Method in brief: (§4)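 Resazurin conversion to fluorescent resorufin (ex 550/em 590 nm) served as the growth readout. Compounds spanned 2- or 4-fold serial dilutions with 64 μM top in-test concentration; inoculum 10^3 cfu per well in MOPS-buffered RPMI-1640 (pH 7.0, 2% glucose). Incubation species-dependent, dermatophytes at 27° C. for ≥1 week.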

Aspergillus fumigatus = test: Antifungal activity in vitro, resazurin growth inhibition: Aspergillus fumigatus (B42928)
Method in brief: as §4

Candida parapsilosis = test: Antifungal activity in vitro, resazurin growth inhibition: Candida parapsilosis (B66126)
Method in brief: as §4

Cryptococcus neoformans = test: Antifungal activity in vitro, resazurin growth inhibition: Cryptococcus neoformans (B66663)
Method in brief: as §4

Rhizopus oryzae = test: Antifungal activity in vitro, resazurin growth inhibition: Rhizopus oryzae (IHEM5223)
Protocol: as §2, §3

Rhizomucor miehei = test: Antifungal activity in vitro, resazurin growth inhibition: Rhizomucor miehei (IHEM13391)
Protocol: as §2, §3

Row | SMILES | Inf. B: Microsporum canis B68128, pIC50 (Microsporum canis) | Inf. G: Trichophyton mentagrophytes B70554, pIC50 [1] | Inf. C: Trichophyton rubrum B68183, pIC50 (Trichophyton rubrum) | Inf. H: Scedosporium apiospermum IHEM3817, pIC50 (Scedosporium apiospermum) | Inf. I: Scedosporium prolificans IHEM21157, pIC50 (Scedosporium prolificans) | Inf. A: Sporothrix schenkii B62482, pIC50 (Sporothrix schenkii) | Inf. E: Aspergillus fumigatus B42928, pIC50 (Aspergillus fumigatus) | Inf. D: Candida parapsilosis B66126, pIC50 (Candida parapsilosis) | Inf. F: Cryptococcus neoformans B66663, pIC50 (Cryptococcus neoformans) | Inf. J: Rhizopus oryzae IHEM5223, pIC50 (Rhizopus oryzae) | Inf. K: Rhizomucor miehei IHEM13391, pIC50 (Rhizomucor miehei)
1 | Cc1nc2cc(C3=NCc4c(Cl)cccc4-n4cccc43)ccc2s1 [Compound 191] | 5.69 | 5.80 | 6.18 | 4.88 | 6.35 | 4.75 | 5.42 | <4.19 | 5.00 | <4.19 | <4.19
2 | Clc1ccc(C2=NCc3c(Cl)cccc3-n3cccc32)cn1 [Compound 77] | 5.67 | 5.71 | 6.22 | 4.88 | 5.57 | 4.52 | 6.05 | 4.69 | 5.03 | <4.19 | <4.19
3 | Clc1cccc2c1CN=C(c1cc3cccc(Cl)c3o1)c1cccn1-2 [Compound 126] | 6.33 | 6.34 | 6.87 | 5.45 | 6.64 | <4.19 | 6.29 | <4.19 | 5.18 | <4.19 | <4.19
4 | Clc1ccc2oc(C3=NCc4c(Cl)cccc4-n4cccc43)cc2c1 [Compound 121] | 6.96 | 6.86 | 6.82 | 5.97 | 6.15 | 6.11 | 5.52 | <4.19 | <4.19 | 5.77 | 5.58
5 | Cc1cccc2c1-n1cccc1C(c1cc3ccccc3s1)=NC2 [Compound 164] | 5.86 | 6.29 | 6.51 | 5.66 | 6.44 | 5.40 | 5.70 | 4.97 | 5.85 | <4.19 | 5.15
6 | Fc1cc(F)c2oc(C3=NCc4c(Cl)cccc4-n4cccc43)cc2c1 [Compound 128] | 6.02 | 6.30 | 6.87 | <4.19 | 7.10 | <4.19 | 5.99 | <4.19 | 4.69 | <4.19 | <4.19
7 | Fc1cccc2cc(C3=NCc4c(Cl)cc(Cl)cc4-n4cccc43)oc12 [Compound 149] | 5.35 | 5.61 | 6.10 | <4.19 | 5.79 | <4.19 | 5.47 | <4.19 | 4.81 | <4.19 | <4.19
8 | Clc1cccc2c1-n1cccc1C(c1cc3ccccc3s1)=NC2 [Compound 167] | 6.01 | 5.97 | 6.79 | 5.72 | 6.31 | 5.70 | 5.38 | 4.90 | 5.86 | <4.19 | 5.10
9 | Clc1cc(Cl)c2c(c1)-n1cccc1C(c1ccc3ncsc3c1)=NC2 [Compound 187] | 5.68 | 6.22 | 6.77 | 5.79 | 6.92 | 5.09 | 5.98 | 4.50 | 5.46 | <4.19 | <4.19
